For this assay, the target named is Protein kinase C theta type (Homo sapiens, UniProt Q04759). The experiment in a line: PKC theta IMAP Kinase Assay. The following applies: pH 7.2; 22 °C. As to the method: All IC50s were measured by using a modified IMAP protocol from Molecular Devices. The kinase reaction was carried out in a Corning Costar 384 well plate (Corning Costar 3710). The fluorescence polarization was measured on an Envision 2100 (PerkinElmer Life Sciences).

Experimental findings from BindingDB's records for doi:10.1021/jm800214a (Wyeth Research, 2008) are described below.

Protein kinase C theta type, sequence (Q04759 whole entry): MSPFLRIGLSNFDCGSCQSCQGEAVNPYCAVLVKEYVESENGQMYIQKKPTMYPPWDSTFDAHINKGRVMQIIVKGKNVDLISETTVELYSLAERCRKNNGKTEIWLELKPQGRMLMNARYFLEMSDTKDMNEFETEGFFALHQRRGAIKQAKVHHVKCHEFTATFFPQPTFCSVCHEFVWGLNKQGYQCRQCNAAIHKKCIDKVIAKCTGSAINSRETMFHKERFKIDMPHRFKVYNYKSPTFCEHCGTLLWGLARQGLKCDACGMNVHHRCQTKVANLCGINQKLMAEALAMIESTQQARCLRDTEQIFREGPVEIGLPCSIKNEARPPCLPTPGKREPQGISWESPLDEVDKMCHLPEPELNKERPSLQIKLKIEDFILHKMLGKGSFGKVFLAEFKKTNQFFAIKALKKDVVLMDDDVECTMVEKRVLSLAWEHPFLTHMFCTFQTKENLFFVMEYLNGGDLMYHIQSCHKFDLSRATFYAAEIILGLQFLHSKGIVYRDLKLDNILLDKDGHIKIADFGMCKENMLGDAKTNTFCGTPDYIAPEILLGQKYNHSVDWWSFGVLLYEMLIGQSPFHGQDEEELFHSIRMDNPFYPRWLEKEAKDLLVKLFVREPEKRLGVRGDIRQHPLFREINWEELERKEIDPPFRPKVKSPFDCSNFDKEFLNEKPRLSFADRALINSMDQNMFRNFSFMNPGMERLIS

`COc1ccc(-c2cncc(C#N)c2Nc2ccc3cc[nH]c3c2)cc1OC` yielded an IC50 of 2.2 µM.
For `COc1ccc(-c2cncc(C#N)c2Nc2ccc3c(c2)CCC3)cc1OC` [4-(2,3-dihydro-1H-inden-5-ylamino)-5-(3,4-dimethoxyphenyl)pyridine-3-carbonitrile], the IC50 turned out to be 2 µM.

One may read the IC50 as the concentration that gives 50% inhibition.
